Reference: the CheMixHub viscosity set

Test: xn = mol fraction of the nth substance listed

[I-].[Rb+] + O
310.15 K, 101 kPa
Conditions	viscosity [mPa·s]
x1 = 0.000182	0.6811
x1 = 0.000907	0.69
x1 = 0.001816	0.7025
x1 = 0.002695	0.7138
x1 = 0.003679	0.7268
x1 = 0.005197	0.7469
x1 = 0.005988	0.7573

CCOC(=O)CCC(=O)OCC + O=C1CCCO1
Conditions	viscosity [mPa·s]
298.15 K, 101 kPa, x2 = 0.95	1.745

NC=O + OCC(O)CO
viscosity [mPa·s], 101 kPa
Conditions	x2 = 0.057	x2 = 0.12	x2 = 0.189	x2 = 0.266	x2 = 0.352	x2 = 0.449	x2 = 0.559	x2 = 0.685	x2 = 0.83
303.15 K	4.08	5.13	7.21	11.1	15.9	27.5	53.1	106.8	214.3
318.15 K	2.98	3.52	4.65	6.53	8.88	14.1	23.9	42.7	80.6

CN1CCC[C@H]1c1cccnc1 + OCCCO
100 kPa
Conditions	viscosity [mPa·s]
293.15 K, x1 = 0.5	33.15
293.15 K, x1 = 0.6004	22.75
293.15 K, x1 = 0.8	9.805
298.15 K, x1 = 0.8	8.105
303.15 K, x1 = 0.6004	13.95
308.15 K, x1 = 0.7	7.885
313.15 K, x1 = 0.9	3.625
323.15 K, x1 = 0.3	13.05

NC=O + OCCCO
viscosity [mPa·s], 100 kPa
Conditions	x1 = 0.1034	x1 = 0.2038	x1 = 0.3016	x1 = 0.4021	x1 = 0.5014	x1 = 0.5969	x1 = 0.7026	x1 = 0.7996	x1 = 0.8975
293.15 K	38.53	28.29	19.85	14.09	10.47	8.232	6.233	5.198	4.415
298.15 K	29.44	21.08	14.33	9.719	7.266	6.123	5.094	4.135	3.811
303.15 K	23.41	16.76	11.34	7.417	5.776	4.679	4.163	3.336	3.213

OCCCO + OCCO
viscosity [mPa·s], 101 kPa
Conditions	x2 = 0.111	x2 = 0.2019	x2 = 0.359	x2 = 0.4612	x2 = 0.5502	x2 = 0.6262	x2 = 0.7342	x2 = 0.8289	x2 = 0.9111
298.15 K	39.52	37.55	34.13	31.81	–	–	24.96	22.36	19.9
303.15 K	31.57	29.96	27.17	25.33	23.65	22.16	19.81	17.71	15.79
308.15 K	25.57	24.22	21.94	20.45	19.09	17.92	16.08	14.42	12.89

OCCCl + OCCO
293.15 K, 101.33 kPa
Conditions	viscosity [mPa·s]
x2 = 0.1328	4.422
x2 = 0.2605	5.484
x2 = 0.3003	5.879
x2 = 0.3636	6.593
x2 = 0.4644	7.922
x2 = 0.5437	9.223
x2 = 0.6211	10.66
x2 = 0.6983	12.26
x2 = 0.7424	13.29
x2 = 0.8141	15.21
x2 = 0.8422	15.98
x2 = 0.9168	18.26

CN1CCC[C@H]1c1cccnc1 + Oc1ccccc1
viscosity [mPa·s], 101 kPa
Conditions	308.15 K	323.15 K
x1 = 0.1004	16.28	7.224
x1 = 0.206	28.72	11.46
x1 = 0.2109	30.07	12.15
x1 = 0.2205	29.73	11.9
x1 = 0.253	29.83	12.06
x1 = 0.255	29.69	12.05
x1 = 0.2629	29.4	12
x1 = 0.2865	28.64	11.74
x1 = 0.3078	27.55	11.63
x1 = 0.4035	21.01	10.08
x1 = 0.4981	16.16	8.092
x1 = 0.6636	7.423	4.797
x1 = 0.7961	5.162	3.41
x1 = 0.861	4.501	3.032

CC(C)C#N + c1ccccc1
viscosity [mPa·s], 101 kPa
Conditions	x2 = 0.1007	x2 = 0.2057	x2 = 0.307	x2 = 0.3954	x2 = 0.4991	x2 = 0.5899	x2 = 0.6925	x2 = 0.7959	x2 = 0.8965
303.15 K	0.459	0.458	0.46	0.465	0.472	0.483	0.497	0.516	0.539
308.15 K	0.43	0.432	0.432	0.434	0.442	0.451	0.462	0.481	0.498

OCCCl + c1ccccc1
303.15 K, 101.33 kPa
Conditions	viscosity [mPa·s]
x2 = 0.3365	1.315
x2 = 0.4832	1.008
x2 = 0.6611	0.771
x2 = 0.849	0.613

NC=O + c1ccncc1
298.15 K, 101 kPa
Conditions	viscosity [mPa·s]
x1 = 0.129	1.064
x1 = 0.1798	1.16
x1 = 0.2662	1.365

OCCCO + c1ccncc1
Conditions	viscosity [mPa·s]
313.15 K, 101 kPa, x2 = 0.3	8.615

N#C[C-](C#N)C#N.OCC[n+]1ccccc1 + c1ccsc1
Conditions	viscosity [mPa·s]
313.15 K, 101 kPa, x1 = 0.4042	9.96
